{"source": "patent US20090143484A1", "about": "“USE OF GARLIC OIL TO INCREASE BIOAVAILABILITY OF COENZYME Q-10” (priority 2007, published 2009)", "key": {"[1]": {"test_system": "Human LDL", "assay": "Prevention of LDL oxidation (CuSO4-initiated conjugated diene formation at 234 nm)", "format": "biochemical", "details": "LDL 0.1 mg/ml", "experimental": "Human LDL were obtained by ultracentrifugation from fresh human blood, followed by dialysis against in 10 mM PBS (pH 7.4) at 4° C. in the dark for 24 h. LDL (0.1 mg/ml) were mixed with different amounts of active constituents. Reaction was initiated by adding a solution of CuSO4 (10 μM); samples were then incubated at 37° C. for 22 h. The formation of conjugated diene was measured at 234 nm using a Hewlett-Packard spectrophotometer (Agilent, Palo Alto).\nData evaluation was performed by comparison of the slope of increase in diene-formation. The steepest slope (i.e. without addition of anti-oxidants) was set to 100%. Results are given as relative %.\nThe lag-time until start of diene formation was estimated from the kinetic curves obtained. Results are given in minutes."}, "[2]": {"test_system": "Caco-2 HTB-37 (human colon adenocarinoma)", "assay": "Absorption testing using Caco-2 cells (cellular uptake of CoQ10, HPLC)", "format": "in vitro ADME", "details": "37° C., up to 2 h", "experimental": "Caco-2 HTB-37 (human colon adenocarinoma), obtained from ATCC, were cultured in DMEM (Dulbecco/Vogt modified Eagle's minimal essential medium) containing 20% FCS (Fetal Calf Serum), 1% nonessential amino acids, 0.83 mM L-glutamine and 1% penicillin-streptomycin at 37° C. in a humified atmosphere of CO2. Cells were grown in 75 cm^2 culture-flasks (T75) and their medium was replaced every third day. As soon as confluency was reached—once a week—they were split using trypsin.\nAfter discarding the old medium, the monolayer was washed with 10 mL PBS. Subsequently, 3 mL trypsin was added in order to detach the cells. […]\nThe remaining 9 mL cell-suspension was used for experiments and was therefore transferred into a 15 mL falcon. After the cells had been counted by using a Neubauer-chamber, cells were seeded into 6 Well Thin Certs and 6 Wells at a density of 3×10^5 and 6.76×10^5, respectively. […]\nThe optimum amount of the emulsifier lecithin had to be determined individually for each sample. […]\nA reversed-phase column (Spherimage-80) with 5 μm pore size and […] was used. […] Coenzyme Q10 (oxidized and reduced) were monitored at 275 nm.\nCoQ10 was determined in the media (outside the cells) and in the cells. Both, oxidized and reduced CoQ10, were quantified. […]"}}}
{"smiles": "COC1=C(OC)C(=O)C(C/C=C(\\C)CC/C=C(\\C)CC/C=C(\\C)CC/C=C(\\C)CC/C=C(\\C)CC/C=C(\\C)CC/C=C(\\C)CC/C=C(\\C)CC/C=C(\\C)CCC=C(C)C)=C(C)C1=O", "note": "[CoQ10]", "values": [{"measurement": "Inhibition", "setting": "[1]; 0.1 mg/mL of CoQ10", "value": 13, "unit": "%"}, {"measurement": "Residual activity", "setting": "[1]; 0.1 mg/mL of CoQ10", "value": 87, "unit": "%"}, {"measurement": "Inhibition", "setting": "[1]; 1 mg/mL of CoQ10", "value": 43, "unit": "%"}, {"measurement": "Residual activity", "setting": "[1]; 1 mg/mL of CoQ10", "value": 57, "unit": "%"}, {"measurement": "Inhibition", "setting": "[1]; 1 mg/mL of CoQ10, listed as CoQ-10", "value": "about 43%"}, {"measurement": "Inhibition", "setting": "[1]; 10 mg/mL of CoQ10", "value": 68, "unit": "%"}, {"measurement": "Residual activity", "setting": "[1]; 10 mg/mL of CoQ10", "value": 32, "unit": "%"}, {"measurement": "Lag Time", "setting": "[1]; lag time to start of LDL-oxidation, Co Q10 1 mg/mL", "value": 146, "unit": "min"}, {"measurement": "content of CoQ10 in the media during the incubation conditions", "setting": "[2]", "value": "stable"}]}
